Test results: US8859529B2, “Compounds for the treatment of inflammatory disorders” (Merck Sharp & Dohme Corp., priority 2008, dated 2014)

Key:
[1] = test system: TNF-α production from human whole blood; experiment: Inhibition of TNF-α production from human whole blood (hWBA); type: cell-based; settings: human whole blood diluted 1:1, 1 h pre-incubation, LPS, 3.5 h, TNF-α by ELISA; N/A = Not Active
Protocol: The compounds' ability to inhibit TACE activity can also be determined in human whole blood using the assay conditions described n Example 15 below.
Human whole blood was diluted 1:1 with serum free medium (RPMI, L-glutamine, Pen-Strep, HEPES) and incubated with a test compound in a final volume of 360 μl for 1 h at 37° C. Forty microliters of LPS (10 μg/mL) was then added. Supernatant was collected after 3.5 h incubation and the concentration of TNF-α was determined by ELISA (R&D Systems). The concentration of the test compound which inhibits 50% of the amount of TNF-α from the untreated control was determined.

[2] = Area under the curve determinations of plasma levels in rats (rrAUC); type: in vivo; settings: rapid rat AUC of the drug (parent) in plasma; oral 10 mg/kg, fasted rats, blood 0.5-6 h post-dosing
Protocol: To gain insight into the pharmacokinetic properties of the compounds of formula (I), plasma levels of the compounds in rats were determined according to the protocol described in Korfmacher, W. A,; Cox, K. A.; Ng, K. J.; Veals, J.; Hsieh, Y.; Wainhaus, S.; Broske, L; Prelusky, D.; Nomeir, A.; White, R. E. Rapid Commun. Mass Spectrorn, 2001, 15, 335. Briefly, rats, after an overnight fast, were dosed orally with the test compound at a dose of 10 mg/kg in a 5 mL/kg dose volume. Blood was collected at 0.5, 1, 2, 3, 4, and 6 h post-dosing. Mass spectrometry using high performance liquid chromatography was used to identify and measure the concentrations of the test compounds in the plasma at the various time points. The parent ion of each test compound was used to identify and quantitate the compounds in plasma.

Row | SMILES | IC50 [1] [nM] | PK (rrAUC) parent [2]
1 | COc1ccc2c(c1F)C(=O)N(C[C@@]1(c3cc4nc(N5C(=O)CCC5C)ccc4o3)NC(=O)N(COC(=O)C(C)(C)C)C1=O)C2 (some centres unmarked) [Compound 9] | 192 | 4557 nM·h
2 | COc1ccc2c(c1)C(=O)N(C[C@@]1(c3cc4nc(N5C(=O)CCC5C)ccc4o3)NC(=O)N(COC(=O)C(C)(C)C)C1=O)C2 (some centres unmarked) [Compound 10] | 266 | 1202 nM·h
3 | COc1ccc2c(c1F)C(=O)N(C[C@@]1(c3cc4c(C)nccc4o3)NC(=O)N(COC(=O)C(C)(C)C)C1=O)C2 [Compound 11] | 235 | 1827 nM·h
4 | COc1ccc2c(c1F)C(=O)N(C[C@@]1(c3cc4cnc(C)cc4o3)NC(=O)N(COC(=O)C(C)(C)C)C1=O)C2 [Compound 12] | 187 | 45,213 nM · h
5 | COc1ccc2c(c1)C(=O)N(C[C@@]1(C#Cc3ccc4c(=O)[nH][nH]c4c3)NC(=O)N(COC(=O)C(C)(C)C)C1=O)C2 [Compound 13] | 213 | 0 nM·h
6 | COc1ccc2c(c1F)C(=O)N(C[C@@]1(C#Cc3ccc4c(=O)[nH][nH]c4c3)NC(=O)N(COC(=O)C(C)(C)C)C1=O)C2 [Compound 14] | 275 | 0 nM·h
7 | COc1ccc2c(c1)C(=O)N(C[C@@]1(C#Cc3ccc(C(N)=O)cc3)NC(=O)N(COC(=O)C(C)(C)C)C1=O)C2 [Compound 15] | 188 | 0 nM·h
8 | COc1ccc2c(c1F)C(=O)N(C[C@@]1(c3cc4nc(-c5cn[nH]c5)ccc4o3)NC(=O)N(COC(=O)C(C)(C)C)C1=O)C2 [Compound 16] | 141 | 249 nM·h
9 | COc1ccc2c(c1)C(=O)N(C[C@@]1(c3cc4nc(-c5c(C)nn(C)c5C)ccc4o3)NC(=O)N(COC(=O)C(C)(C)C)C1=O)C2 [Compound 17] | 626 | 2005 nM·h
10 | COc1ccc2c(c1F)C(=O)N(C[C@@]1(c3cc4nc(N)ccc4o3)NC(=O)N(COC(=O)C(C)(C)C)C1=O)C2 [Compound 18] | 178 | 351 nM·h
11 | COc1ccc2c(c1F)C(=O)N(C[C@@]1(c3cc4ncc(C(N)=O)cc4o3)NC(=O)N(COC(=O)C(C)(C)C)C1=O)C2 [Compound 19] | 101 | 94 nM·h
12 | COc1ccc2c(c1F)C(=O)N(C[C@@]1(c3cc4c(OC(C)=O)nccc4o3)NC(=O)N(COC(=O)C(C)(C)C)C1=O)C2 [Compound 22] | 2820 | 823 nM·h
13 | CCN1CCN(c2ccc3oc([C@]4(CN5Cc6ccc(OC)cc6C5=O)NC(=O)N(COC(=O)C(C)(C)C)C4=O)cc3n2)CC1 [Compound 24] | 176 | 655 nM·h
14 | COc1ccc2c(c1)C(=O)N(C[C@@]1(C#Cc3ccc(N4CCNCC4)cc3)NC(=O)N(COC(=O)C(C)(C)C)C1=O)C2 [Compound 25] | 212 | 0 nM·h
15 | COc1ccc2c(c1F)C(=O)N(C[C@@]1(c3cc4cc(-c5cc(=O)[nH]c(N)n5)ccc4o3)NC(=O)N(COC(=O)C(C)(C)C)C1=O)C2 [Compound 29] | 199 | 0 nM·h
16 | COc1ccc2c(c1)C(=O)N(C[C@@]1(c3cc4nc(N5C[C@H](O)CC5=O)ccc4o3)NC(=O)N(COC(=O)C(C)(C)C)C1=O)C2 [Compound 31] | 224 | 334 nM·h
17 | COc1ccc2c(c1)C(=O)N(C[C@@]1(c3cc4cc(-c5cc(=O)[nH]c(N)n5)cnc4o3)NC(=O)N(COC(=O)C(C)(C)C)C1=O)C2 [Compound 33] | 375 | 0 nM·h
18 | COc1ccc2c(c1F)C(=O)N(C[C@@]1(C#Cc3cncc(NC(=O)C4CCN(C)CC4)c3)NC(=O)N(COC(=O)C(C)(C)C)C1=O)C2 [Compound 36] | 171 | 0 nM·h
19 | COc1ccc2c(c1F)C(=O)N(C[C@@]1(c3cc4nc(N5C[C@H](O)CC5=O)ccc4o3)NC(=O)N(COC(=O)C(C)(C)C)C1=O)C2 [Compound 37] | 148 | 0 nM·h
20 | COc1ccc2c(c1F)C(=O)N(C[C@@]1(c3cc4nc(N5C[C@@H](O)CC5=O)ccc4o3)NC(=O)N(COC(=O)C(C)(C)C)C1=O)C2 [Compound 38] | 94 | 1736 nM·h
21 | CCOc1ccc2c(c1F)C(=O)N(C[C@@]1(c3cc4nc(N5CCN(CC)CC5)ccc4o3)NC(=O)N(COC(=O)C(C)(C)C)C1=O)C2 [Compound 39] | 241 | 927 nM·h
22 | COc1ccc2c(c1)C(=O)N(C[C@@]1(C#Cc3ccc(-c4nc(-c5cnn(C)c5)ccc4OC(=O)C(C)(C)C)cc3)NC(=O)N(COC(=O)C(C)(C)C)C1=O)C2 [Compound 43] | 336 | 0 nM·h
23 | COc1ccc2c(c1F)C(=O)N(C[C@@]1(C#Cc3ccc(-c4nc(-c5cnn(C)c5)ccc4OC(=O)C(C)(C)C)c(F)c3)NC(=O)N(COC(=O)C(C)(C)C)C1=O)C2 [Compound 44] | 281 | 0 nM·h
24 | COc1ccc2c(c1F)C(=O)N(C[C@@]1(c3cc4cc5c(c(F)c4o3)C(=O)NC5)NC(=O)N(COC(=O)c3ccccc3)C1=O)C2 [Compound 64] | 169 | 5393 nM·h

Next, values leading:

Row | IC50 [1] [nM] | PK (rrAUC) parent [2] | SMILES
25 | 282 | 148 nM·h | COc1ccc2c(c1)C(=O)N(C[C@@]1(c3cc4nc(N5CCCNC5=O)ccc4o3)NC(=O)N(COC(=O)C(C)(C)C)C1=O)C2 [Compound 20]
26 | 339 | 2684 nM·h | COc1ccc2c(c1)C(=O)N(C[C@@]1(c3cc4nc(N5CC[C@@H](O)C5)ccc4o3)NC(=O)N(COC(=O)C(C)(C)C)C1=O)C2 [Compound 21]
27 | 645 | 0 nM·h | COc1ccc2c(c1)C(=O)N(C[C@@]1(c3cc4nc(NS(C)(=O)=O)ccc4o3)NC(=O)N(COC(=O)C(C)(C)C)C1=O)C2 [Compound 26]
28 | 940 | 0 nM·h | COc1ccc2c(c1)C(=O)N(C[C@@]1(c3cc4cc(-c5cc(=O)[nH]c(N)n5)ccc4o3)NC(=O)N(COC(=O)C(C)(C)C)C1=O)C2 [Compound 27]
29 | 156 | 0 nM·h | COc1ccc2c(c1)C(=O)N(C[C@@]1(c3cc4nc(N5CCNCC5)ccc4o3)NC(=O)N(COC(=O)C(C)(C)C)C1=O)C2 [Compound 28]
30 | 1330 | 94 nM·h | COc1ccc2c(c1)C(=O)N(C[C@@]1(c3cc4nc(Nc5cccnc5)ccc4o3)NC(=O)N(COC(=O)C(C)(C)C)C1=O)C2 [Compound 34]
31 | 244 | 4316 nM·h | COc1ccc2c(c1)C(=O)N(C[C@@]1(c3cc4cnccc4o3)NC(=O)N(COC(=O)[C@H](N)C(C)C)C1=O)C2 [Compound 35.3]
32 | 7150 | 370 nM·h | COc1ccc2c(c1)C(=O)N(C[C@@]1(c3cc4ncccc4o3)NC(=O)N(C(C)C)C1=O)C2 [Compound 51]
33 | 184 | 13539 nM·h | COc1ccc2c(c1)C(=O)N(C[C@@]1(c3cc4cnccc4o3)NC(=O)N(COC(=O)OC3CCOCC3)C1=O)C2 [Compound 59]
34 | 685 | 0 nM·h | COc1ccc2c(c1)C(=O)N(C[C@@]1(c3cc4cnccc4o3)NC(=O)N(C(C)OC(=O)OC3CCOCC3)C1=O)C2 (some centres unmarked) [Compound 61]
35 | 250 | 0 nM·h | COc1ccc2c(c1)C(=O)N(C[C@@]1(c3cc4cnccc4o3)NC(=O)N(COC(=O)OC(C)C)C1=O)C2 [Compound 62]
36 | 449 | 0 nM·h | COc1ccc2c(c1)C(=O)N(C[C@@]1(c3cc4cnccc4o3)NC(=O)N(COC(=O)OCC3COCO3)C1=O)C2 (some centres unmarked) [Compound 63.1]
37 | 738 | 0 nM·h | CCOC(=O)[C@H](C)OC(=O)OCN1C(=O)N[C@@](CN2Cc3ccc(OC)cc3C2=O)(c2cc3cnccc3o2)C1=O [Compound 63.2]
38 | 1400 | 13539 nM·h | COc1ccc2c(c1)C(=O)N(C[C@@]1(c3cc4cnccc4o3)NC(=O)N(COC(=O)OC3CCN(C)CC3)C1=O)C2 [Compound 63.3]
39 | 427 | 1604 nM·h | COc1ccc2c(c1)C(=O)N(C[C@@]1(c3cc4cnccc4o3)NC(=O)N(COC(=O)OCCN(C)C)C1=O)C2 [Compound 63.4]
40 | 560 | 4426 nM·h | COc1ccc2c(c1)C(=O)N(C[C@@]1(c3cc4ncccc4o3)NC(=O)N(COC(=O)c3ccccc3OC(C)=O)C1=O)C2 [Compound 65]
41 | 504 | 3448 nM·h | COc1ccc2c(c1)C(=O)N(C[C@@]1(c3cc4cnccc4o3)NC(=O)N(COC(=O)c3cccnc3)C1=O)C2 [Compound 67]
42 | 1310 | 13539 nM·h | COc1ccc2c(c1)C(=O)N(C[C@@]1(c3cc4cnccc4o3)NC(=O)N(COC(=O)N3CCN(C)CC3)C1=O)C2 [Compound 68]
43 | 754 | 310 nM·h | COc1ccc2c(c1)C(=O)N(C[C@@]1(c3cc4cnccc4o3)NC(=O)N(CN(C)C(=O)C(C)(C)C)C1=O)C2 [Compound 76.2]
